The values below come from US10906915B2, “Substituted pyrazoloazepin-4-ones and their use as phosphodiesterase inhibitors” (LEO Pharma A/S, priority 2016, dated 2021).

Broadly, the IC50 is the point on the concentration scale where inhibition reaches its midpoint.

For the assay, the target named is human PDE4D catalytic domain (UniProt no. Q08499) (Homo sapiens (Human), UniProt Q08499). The experiment in a line: PDE4 assay (TR-FRET, FAM-cAMP cleavage). The format is biochemical. The conditions noted are these: read-out: PDE4 IC50 range. In short, it runs like this: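 PDE4D catalytic domain ([…]) was incubated with unlabelled cAMP plus FAM-cAMP and titrated compound, stopped with binding buffer of metal-ion nanoparticles and Tb donor. AMP generation read by TR-FRET; IC50 as 50% inhibition of cleavage versus controls, reported as nM ranges.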
Chain of human PDE4D catalytic domain (Q08499 380-740 limits assumed): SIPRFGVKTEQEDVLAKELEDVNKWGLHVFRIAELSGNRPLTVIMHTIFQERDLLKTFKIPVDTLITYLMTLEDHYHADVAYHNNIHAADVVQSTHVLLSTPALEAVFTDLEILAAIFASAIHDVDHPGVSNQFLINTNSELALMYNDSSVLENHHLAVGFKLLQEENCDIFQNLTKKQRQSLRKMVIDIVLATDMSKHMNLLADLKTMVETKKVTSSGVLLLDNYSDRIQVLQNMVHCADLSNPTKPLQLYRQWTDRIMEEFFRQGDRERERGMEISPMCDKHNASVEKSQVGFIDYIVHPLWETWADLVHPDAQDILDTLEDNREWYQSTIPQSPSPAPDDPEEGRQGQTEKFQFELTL
Background: TR-FRET usually uses a lanthanide donor and a delayed reading to cut background.
Consider `CCc1nn(CC(C)(C)COC(=O)c2ccc(C(N)=O)cc2)c2c1C(=O)NCC1(CCOCC1)C2` [Example 328, [3-(3-ethyl-4-oxo-spiro[6,8-dihydro-5H-pyrazolo[4,3-c]azepine-7,4′-tetrahydropyran]-1-yl)-2,2-dimethyl-propyl] 4-carbamoylbenzoate], for which the 50% inhibitory concentration (IC50) is below 100 nM.

For the molecule `CCc1nn(CC(C)(C)COC(=O)c2ccc(C(=O)NC)cc2)c2c1C(=O)NCC1(CCOCC1)C2` [Example 329, [3-(3-ethyl-4-oxo-spiro[6,8-dihydro-5H-pyrazolo[4,3-c]azepine-7,4′-tetrahydropyran]-1-yl)-2,2-dimethyl-propyl] 4-(methylcarbamoyl)benzoate], the IC50 is below 100 nM.

On to `CCNC(=O)c1ccc(C(=O)OCC(C)(C)Cn2nc(CC)c3c2CC2(CCOCC2)CNC3=O)cc1` [Example 330, [3-(3-ethyl-4-oxo-Spiro[6,8-dihydro-5H-pyrazolo[4,3-c]azepine-7,4′-tetrahydropyran]-1-yl)-2,2-dimethyl-propyl] 4-(ethylcarbamoyl)benzoate], for which the IC50 is below 100 nM.

With `CCc1nn(CC(C)(C)COC(=O)c2ccc(C(=O)N(C)C)cc2)c2c1C(=O)NCC1(CCOCC1)C2` [Example 331, [3-(3-ethyl-4-oxo-spiro[6,8-dihydro-5H-pyrazolo[4,3-c]azepine-7,4′-tetrahydropyran]-1-yl)-2,2-dimethyl-propyl] 4-(dimethylcarbamoyl)benzoate], the IC50 was below 100 nM.

For `CCc1nn(CC(C)(C)COC(=O)c2ccc(C(=O)NC(C)C)cc2)c2c1C(=O)NCC1(CCOCC1)C2` [Example 332, [3-(3-ethyl-4-oxo-spiro[6,8-dihydro-5H-pyrazolo[4,3-c]azepme-7,4′-tetrahydropyran]-1-yl)-2,2-dimethyl-propyl] 4-(isopropylcarbamoyl)benzoate], the IC50 was below 100 nM.

On to `CCc1nn(CC(C)(C)COC(=O)c2ccc(C(=O)N3CCCC3)cc2)c2c1C(=O)NCC1(CCOCC1)C2` [Example 333, [3-(3-ethyl-4-oxo-spiro[6,8-dihydro-5H-pyrazolo[4,3-c]azepine-7,4′-tetrahydropyran]-1-yl)-2,2-dimethyl-propyl] 4-(pyrrolidine-1-carbonyl)benzoate], for which the IC50 was below 100 nM.

Turning to `CCc1nn(CC(C)(C)COC(=O)c2ccc(C(=O)N3CCCCC3)cc2)c2c1C(=O)NCC1(CCOCC1)C2` [Example 334, [3-(3-ethyl-4-oxo-spiro[6,8-dihydro-5H-pyrazolo[4,3-c]azepine-7,4′-tetrahydropyran]-1-yl)-2,2 dimethyl-propyl] 4-(piperidine-1-carbonyl)benzoate], the IC50 was below 100 nM.

On to `CCc1nn(CC(C)(C)COC(=O)c2ccc(C(=O)N3CCNCC3)cc2)c2c1C(=O)NCC1(CCOCC1)C2` [Example 335, [3-(3-ethyl-4-oxo-spiro[6,8-dihydro-5H-pyrazolo[4,3-c]azepine-7,4′-tetrahydropyran]-1-yl)-2,2-dimethyl-propyl] 4-(piperazine-1-carbonyl)benzoate], for which the IC50 was below 100 nM.

For `CCc1nn(CC(C)(C)COC(=O)c2ccc(C(=O)N3CCOCC3)cc2)c2c1C(=O)NCC1(CCOCC1)C2` [Example 336, [3-(3-ethyl-4-oxo-spiro[6,8-dihydro-5H-pyrazolo[4,3-c]azepine-7,4′-tetrahydropyran]-1-yl)-2,2-dimethyl-propyl] 4-(morpholine-4-carbonyl)benzoate], the IC50 was below 100 nM.

Regarding `CCc1nn(CC(C)(C)COC(=O)c2ccc(C(=O)N3CCN(C)CC3)cc2)c2c1C(=O)NCC1(CCOCC1)C2` [Example 337, [3-(3-ethyl-4-oxo-spiro[6,8-dihydro-5H-pyrazolo[4,3-c]azepine-7,4′-tetrahydropyran]-1-yl)-2,2-dimethyl-propyl] 4-(4-methylpiperazine-1-carbonyl)benzoate], the IC50 was below 100 nM.

As for `CCc1nn(CC(C)(C)COC(=O)c2ccc(C(=O)N3CCN(C(C)=O)CC3)cc2)c2c1C(=O)NCC1(CCOCC1)C2` [Example 338, [3-(3-ethyl-4-oxo-spiro[6,8-dihydro-5H-pyrazolo[4,3-c]azepine-7,4′-tetrahydropyran]-1-yl)-2,2-dimethyl-propyl] 4-(4-acetylpiperazine-1-carbonyl)benzoate], the IC50 is below 100 nM.

As for `CCc1nn(CC(C)(C)COC(=O)c2cccc(C(=O)NC)c2)c2c1C(=O)NCC1(CCOCC1)C2` [Example 340, [3-(3-ethyl-4-oxo-spiro[6,8-dihydro-5H-pyrazolo[4,3-c]azepine-7,4′-tetrahydropyran]-1-yl)-2,2-dimethyl-propyl] 3-(methylcarbamoyl)-benzoate], the IC50 was below 100 nM.

Take `CCNC(=O)c1cccc(C(=O)OCC(C)(C)Cn2nc(CC)c3c2CC2(CCOCC2)CNC3=O)c1` [Example 341, [3-(3-ethyl-4-oxo-spiro[6,8-dihydro-5H-pyrazolo[4,3-c]azepine-7,4′-tetrahydropyran]-1-yl)-2,2-dimethyl-propyl] 3-(ethylcarbamoyl)-benzoate]: the 50% inhibitory concentration (IC50) is below 100 nM.

On to `CCc1nn(CC(C)(C)COC(=O)c2cccc(C(=O)N(C)C)c2)c2c1C(=O)NCC1(CCOCC1)C2` [Example 342, [3-(3-ethyl-4-oxo-spiro[6,8-dihydro-5H-pyrazolo[4,3-c]azepine-7,4′-tetrahydropyran]-1-yl)-2,2-dimethyl-propyl] 3-(dimethylcarbamoyl)-benzoate], for which the IC50 was below 100 nM.

In the case of `CCc1nn(CC(C)(C)COC(=O)c2cccc(C(=O)NC(C)C)c2)c2c1C(=O)NCC1(CCOCC1)C2` [Example 343, [3-(3-ethyl-4-oxo-spiro[6,8-dihydro-5H-pyrazolo[4,3-c]azepine-7,4′-tetrahydropyran]-1-yl)-2,2-dimethyl-propyl] 3-(isopropylcarbamoyl)-benzoate], the IC50 was below 100 nM.

Take `CCc1nn(CC(C)(C)COC(=O)c2cccc(C(=O)N3CCCC3)c2)c2c1C(=O)NCC1(CCOCC1)C2` [Example 344, [3-(3-ethyl-4-oxo-Spiro[6,8-dihydro-5H-pyrazolo[4,3-c]azepine-7,4′-tetrahydropyran]-1-yl)-2,2-dimethyl-propyl] 3-(pyrrolidine-1-carbonyl)benzoate]: the IC50 is below 100 nM.

For `CCc1nn(CC(C)(C)COC(=O)c2cccc(C(=O)N3CCCCC3)c2)c2c1C(=O)NCC1(CCOCC1)C2` [Example 345], the IC50 was below 100 nM.

Regarding `CCc1nn(CC(C)(C)COC(=O)c2cccc(C(=O)N3CCNCC3)c2)c2c1C(=O)NCC1(CCOCC1)C2` [Example 346, [3-(3-ethyl-4-oxo-spiro[6,8-dihydro-5H-pyrazolo[4,3-c]azepine-7,4′-tetrahydropyran]-1-yl)-2,2-dimethyl-propyl] 3-(piperazine-1-carbonyl)benzoate], the IC50 was below 100 nM.

With `CCc1nn(CC(C)(C)COC(=O)c2cccc(C(=O)N3CCOCC3)c2)c2c1C(=O)NCC1(CCOCC1)C2` [Example 347, [3-(3-ethyl-4-oxo-spiro[6,8-dihydro-5H-pyrazolo[4,3-c]azepine-7,4′-tetrahydropyran]-1-yl)-2,2-dimethyl-propyl] 3-(morpholine-4-carbonyl)benzoate], the IC50 is below 100 nM.

For the molecule `CCc1nn(CC(C)(C)COC(=O)c2cccc(C(=O)N3CCN(C)CC3)c2)c2c1C(=O)NCC1(CCOCC1)C2` [Example 348, [3-(3-ethyl-4-oxo-spiro[6,8-dihydro-5H-pyrazolo[4,3-c]azepine-7,4′-tetrahydropyran]-1-yl)-2,2-dimethyl-propyl] 3-(4-methylpiperazine-1-carbonyl)benzoate], the IC50 was below 100 nM.
